Reference: patent US20110038885A1, “CHEMOKINE ANALOGS” (priority 2007, published 2011)
Bridge positions count the residues as written; N and C are the ends. Square brackets hold non-standard residues; d marks the D form. Peptide text beside a SMILES is read from it. * marks the point of attachment. Hydrocinnamoyl(4-Me) = Cc1ccc(CCC(=O)*)cc1; X3 = O=C(/C=C/c1ccc(Cl)cc1)*; Octanoyl = CCCCCCCC(=O)*; X5 = O=C(/C=C/c1ccccc1)*; Hexanoyl = CCCCCC(=O)*

Test system: MCP-1
Experiment: In vitro chemotaxis (trans-well migration) v MCP-1
Type: cell-based, human
Procedure: To determine whether an agent inhibits a chemokine-induced activity, such as macrophage recruitment, varying amounts of the agent are mixed with cells in the presence of a known chemoattractant. For example, a range of known concentrations of an agent, e.g., a chemokine peptide, is incubated with a defined number (e.g., 10^4-10^6) of human THP-1 monocyte cells in individual wells of the top compartment of a trans-well plate. Chemokine, at a concentration known to cause significant migration of THP-1 cells in the trans-well migration assay, is placed in the lower compartment of a trans-well plate. Cells are then incubated at 37° C. for a period sufficient to allow migration, e.g., 4 hours. After incubation, the cells are gently removed from the top of the filter with a pipette, 20 μl of 20 mM EDTA in simple PBS is added into each top well, and incubated for 20 minutes at 4° C. The filter is carefully flushed with media using a gentle flow, and removed. A standard curve consisting of a two-fold dilution series of THP-1 cells (in 29 μl) is placed to accurately quantify the number of cells that have migrated. Migrated cells are stained with 3 μl of MTT stock dye solution which is added directly into each well (5 mg/ml in RPMI-1640 without phenol red) (Sigma Chemical Co., St. Louis, Mo., USA) and incubated at 37° C. for 4 hours. The media is carefully aspirated from each well, and the converted dye is solubilized by 20 μl of DMSO. Absorbance of converted dye is measured at a wavelength of 595 nm using an ELISA plate reader. The number of migrated cells in each well is then determined by interpolation of the standard curve (see also Imai et al., J. Biol. Chem., 272:15036, 1997). Any method suitable for counting cells can be used, for example, counting with a hemocytometer, incubation of the cells with MTT (see above), or FACS analysis. A negative control assay is also performed, using TGFβ or another non-chemokine chemoattractant (e.g., IL1β or TNFα). To assess whether the agent is cytotoxic, the same concentrations of agent are incubated with THP-1 cells. Agents which 1) are not cytotoxic at levels which inhibit migration, 2) are ineffective at inhibiting the negative control-induced migration, and 3) reduce or inhibit chemokine-induced THP-1 migration, are agents which fall within the scope of the invention.

Row | Structure (SMILES) | EC50
1 | CC[C@H](C)[C@@H]1NC(=O)[C@H](Cc2c[nH]c3ccccc23)NC(=O)[C@H](CCCCN)NC(=O)[C@@H](NC(=O)/C=C/c2ccccc2)CSSC[C@@H](C(N)=O)NC(=O)[C@H](CCC(N)=O)NC1=O [Example 72, trans-Ciimamoyl-c(Cys-Lys-Trp-Ile-Gln-Cys)-NH2] (X5-CKWIQC-NH2; disulfide 1-6) | 8 nM
2 | CC[C@H](C)[C@@H]1NC(=O)[C@H](Cc2c[nH]c3ccccc23)NC(=O)[C@H](CCCCN)NC(=O)[C@@H](NC(=O)/C=C/c2ccc(Cl)cc2)CSSC[C@@H](C(N)=O)NC(=O)[C@H](CCC(N)=O)NC1=O [Example 73, 4-Chlorocinnamoyl-c(Cys-Lys-Trp-Ile-Gln-Cys)-NH2] (X3-CKWIQC-NH2; disulfide 1-6) | 10 nM
3 | CC[C@H](C)[C@@H]1NC(=O)[C@H](Cc2c[nH]c3ccccc23)NC(=O)[C@H](CCCCN)NC(=O)[C@@H](NC(C)=O)CSSC[C@H](C(N)=O)NC(=O)[C@H](CCC(N)=O)NC1=O [Example 74, Ac-c(Cys-Lys-Trp-Ile-Gln-D-Cys)-NH2] (Ac-CKWIQ[dC]-NH2; disulfide 1-6) | 7 nM
4 | CC[C@H](C)[C@@H]1NC(=O)[C@H](Cc2c[nH]c3ccccc23)NC(=O)[C@H](CCCCN)NC(=O)[C@@H](NC(C)=O)CSSC[C@@H](C(N)=O)NC(=O)[C@@H](CCC(N)=O)NC1=O [Example 75, Ac-c(Cys-Lys-Trp-Ile-D-Gln-Cys)-NH2] (Ac-CKWI[dQ]C-NH2; disulfide 1-6) | 25 nM
5 | CC[C@@H](C)[C@H]1NC(=O)[C@H](Cc2c[nH]c3ccccc23)NC(=O)[C@H](CCCCN)NC(=O)[C@@H](NC(C)=O)CSSC[C@@H](C(N)=O)NC(=O)[C@H](CCC(N)=O)NC1=O [Example 76, Ac-c(Cys-Lys-Trp-D-Ile-Gln-Cys)-NH2] (Ac-CKW[dI]QC-NH2; disulfide 1-6) | 20 nM
6 | CC[C@H](C)[C@@H]1NC(=O)[C@@H](Cc2c[nH]c3ccccc23)NC(=O)[C@H](CCCCN)NC(=O)[C@@H](NC(C)=O)CSSC[C@@H](C(N)=O)NC(=O)[C@H](CCC(N)=O)NC1=O [Example 77, Ac-c(Cys-Lys-D-Trp-Ile-Gln-Cys)-NH2] (Ac-CK[dW]IQC-NH2; disulfide 1-6) | 20 nM
7 | CC[C@H](C)[C@@H]1NC(=O)[C@H](Cc2c[nH]c3ccccc23)NC(=O)[C@@H](CCCCN)NC(=O)[C@@H](NC(C)=O)CSSC[C@@H](C(N)=O)NC(=O)[C@H](CCC(N)=O)NC1=O [Example 78, Ac-c(Cys-D-Lys-Trp-Ile-Gln-Cys)-NH2] (Ac-C[dK]WIQC-NH2; disulfide 1-6) | 30 nM
8 | CC[C@H](C)[C@@H]1NC(=O)[C@H](Cc2c[nH]c3ccccc23)NC(=O)[C@H](CCCCN)NC(=O)[C@H](NC(C)=O)CSSC[C@@H](C(N)=O)NC(=O)[C@H](CCC(N)=O)NC1=O [Example 79, Ac-c(D-Cys-Lys-Trp-Ile-Gln-Cys)-NH2] (Ac-[dC]KWIQC-NH2; disulfide 1-6) | 60 nM
9 | CC[C@H](C)[C@@H]1NC(=O)[C@H](Cc2c[nH]c3ccccc23)NC(=O)[C@H](CCCCN)NC(=O)[C@@H](NC(=O)CCc2ccc(C)cc2)CSSC[C@@H](C(N)=O)NC(=O)[C@H](CCC(N)=O)NC1=O [Example 80, (Des-amino-4-methyl)Phe-c(Cys-Lys-Trp-Ile-Gln-Cys)-NH2] ({Hydrocinnamoyl(4-Me)}-CKWIQC-NH2; disulfide 1-6) | 10 nM
10 | CCCCCC(=O)N[C@H]1CSSC[C@@H](C(N)=O)NC(=O)[C@H](CCC(N)=O)NC(=O)[C@H]([C@@H](C)CC)NC(=O)[C@H](Cc2c[nH]c3ccccc23)NC(=O)[C@H](CCCCN)NC1=O [Example 81, n-Hexanoyl-c(Cys-Lys-Trp-Ile-Gln-Cys)-NH2] (Hexanoyl-CKWIQC-NH2; disulfide 1-6) | 5 nM
11 | CCCCCCCC(=O)N[C@H]1CSSC[C@@H](C(N)=O)NC(=O)[C@H](CCC(N)=O)NC(=O)[C@H]([C@@H](C)CC)NC(=O)[C@H](Cc2c[nH]c3ccccc23)NC(=O)[C@H](CCCCN)NC1=O [Example 82, Octanoyl-c(Cys-Lys-Trp-Ile-Gln-Cys)-NH2] (Octanoyl-CKWIQC-NH2; disulfide 1-6) | 25 nM
